{
  "source": "paper PMC8137473",
  "about": "“Preclinical trial of a MAP4K4 inhibitor to reduce infarct size in the pig: does cardioprotection in human stem cell-derived myocytes predict success in large mammals?” (Basic Research in Cardiology, 2021)",
  "key": {"MAP4K4": {"target": "MAP4K4 (Homo sapiens, UniProt O95819)", "sequence (O95819 whole entry, species assumed, the tested form may be a part)": "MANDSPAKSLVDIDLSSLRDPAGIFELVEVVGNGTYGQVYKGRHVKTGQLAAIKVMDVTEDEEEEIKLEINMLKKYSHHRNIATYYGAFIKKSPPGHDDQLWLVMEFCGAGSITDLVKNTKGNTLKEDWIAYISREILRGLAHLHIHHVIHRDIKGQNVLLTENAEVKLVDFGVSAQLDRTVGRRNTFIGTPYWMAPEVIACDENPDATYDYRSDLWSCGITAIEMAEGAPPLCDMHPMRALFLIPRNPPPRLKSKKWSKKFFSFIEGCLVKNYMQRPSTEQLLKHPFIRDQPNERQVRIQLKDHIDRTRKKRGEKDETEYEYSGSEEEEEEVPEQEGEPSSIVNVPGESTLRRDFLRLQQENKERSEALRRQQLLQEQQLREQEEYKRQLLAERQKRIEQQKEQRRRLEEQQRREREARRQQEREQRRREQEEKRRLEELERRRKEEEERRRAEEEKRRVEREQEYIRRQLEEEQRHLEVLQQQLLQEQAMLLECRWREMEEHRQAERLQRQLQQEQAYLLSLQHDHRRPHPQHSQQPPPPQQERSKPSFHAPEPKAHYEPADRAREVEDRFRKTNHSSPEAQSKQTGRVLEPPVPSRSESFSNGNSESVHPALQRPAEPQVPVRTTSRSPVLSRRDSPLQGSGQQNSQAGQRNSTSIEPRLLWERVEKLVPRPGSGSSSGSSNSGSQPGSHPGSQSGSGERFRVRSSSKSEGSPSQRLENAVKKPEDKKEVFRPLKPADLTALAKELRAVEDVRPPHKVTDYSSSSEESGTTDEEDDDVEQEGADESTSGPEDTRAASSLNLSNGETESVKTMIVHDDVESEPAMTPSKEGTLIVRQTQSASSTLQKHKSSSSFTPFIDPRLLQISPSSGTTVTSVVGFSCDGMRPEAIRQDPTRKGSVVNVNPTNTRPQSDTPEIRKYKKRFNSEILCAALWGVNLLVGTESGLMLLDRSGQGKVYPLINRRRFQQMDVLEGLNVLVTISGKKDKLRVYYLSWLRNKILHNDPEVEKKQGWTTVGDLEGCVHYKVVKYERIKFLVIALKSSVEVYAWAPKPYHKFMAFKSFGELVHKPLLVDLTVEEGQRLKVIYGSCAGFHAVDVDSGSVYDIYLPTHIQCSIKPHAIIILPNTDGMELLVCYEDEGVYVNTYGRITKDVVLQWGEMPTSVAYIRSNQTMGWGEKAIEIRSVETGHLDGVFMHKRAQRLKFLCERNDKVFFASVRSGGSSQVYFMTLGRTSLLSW", "experiment": "cell-free biochemical assay, MAP4K4 inhibition", "conditions": "cell-free biochemical assays; read-out: IC50 against MAP4K4", "text": "DMX-10001, a rapidly hydrolyzed phosphate pro-drug of DMX-5804, was produced by Domainex Ltd, by a modification of the latter’s synthetic route, attaching a hydrolysable phosphate group via a linker to the core of DMX-5804 (Fig. 1a). This removes a key hydrogen bonding group and prevents DMX-10001 from binding to the hinge region of the MAP4K4 kinase domain. […] Furthermore, this modest value is likely driven by minute levels of DMX-5804 either present in the sample or generated during by hydrolysis during the assay."}, "hPSC-CMs": {"test_system": "hPSC-CMs", "design": "method as in PMID 30853557", "conditions": "cited from earlier work"}, "376 kinases": {"test_system": "376 kinases", "design": "method as in PMID 30853557", "conditions": "cited from earlier work"}, "[1]": {"experiment": "plasma levels of DMX-5804 in swine during DMX-10001 infusion (efficacy study)", "format": "in vivo, pig", "description": "Compound concentrations after dosing were measured as follows by liquid chromatography–mass spectrometry (Pharmidex, London, UK). To 50 µL aliquots of plasma was added 200 µL of internal standard solution (methanol containing 500 ng/mL tolbutamide). Samples were then mixed (150 rpm, 20 min) and centrifuged (3000 rpm, 15 min). 75 µL of the resulting supernatant was added to 75 µL 10 mM ammonium acetate + 0.5% ammonia) and mixed (450 rpm, 15 min). Calibration standards covering the expected concentration range were prepared by spiking analyte into control matrix, with extraction and analysis in the same way as the plasma samples.\nAnalysis was done by liquid chromatography–mass spectrometry using a Shimadzu Nexera X2 ultra-high-pressure liquid chromatography system coupled to a Shimadzu LCMS 8060 triple quadruple mass spectrometer (Shimadzu, Milton Keynes, UK) with Waters Acquity BEH C18 (50 × 2.1)mm, 1.7 µm column (Waters, Elstree, UK) and mobile phase components 10 mM ammonium acetate + 0.5% ammonia (A) and methanol + 0.5% ammmonia (B). Gradient was 0–0.5 min 30% B; 0.5 to 2.5 min increase to 80% B; 2.5–2.6 min increase to 98% B; 2.6–3 min 98% B; 3–3.1 min decrease to 30% B; 3.1–3.5 min 30% B. Flow rate was 0.4 mL/min. Injection volume was typically 5 µL. Detection was by multiple reaction monitoring, DMX-5804 361.9 > 304.1 (positive ion), DMX-10001 470.1 > 258.0 (negative ion), and tolbutamide 271.0 > 91.0 (positive ion). Retention times were DMX-5804 2.9 min, DMX-10001 2.1 min, and tolbutamide 1.8 min. Data processing was done by Shimadzu LabSolutions Software (Shimadzu, Milton Keynes, UK).\nResults were corrected for plasma protein binding by rapid equilibrium dialysis to calculate free drug levels, and were subjected to iterative computer modeling (XenoGesis, Alderley Park, UK) using Phoenix64 WinNonlin (Certara, Princeton, NJ), to devise the infusion protocol.\nAt several time-points (see Fig. 2), blood samples were taken in lithium-heparin-coated tubes (BD, Plymouth, UK) to analyze plasma levels of DMX-10001 (pro-drug) and DMX-5804 (active compound) and in EDTA-coated tubes (BD, Plymouth, UK) to measure heart-type fatty acid binding protein (hFABP). All blood samples were kept on ice immediately after withdrawal and were centrifuged for 10 min at 3000 rpm and 4 °C within 6 h. Plasma was aliquoted and cryopreserved at − 80 °C until analysis. Levels of DMX-10001 and DMX-5804 were determined by liquid chromatography–mass spectrometry (Pharmidex, London, UK). Porcine hFABP was analyzed as described: plasma samples were thawed on ice, diluted 10 × using the standard diluent provided with the kit, and analyzed by enzyme-linked immunosorbent assays according to the manufacturer’s instructions (Life Diagnostics, West Chester, PA). Absorbance was measured at 450 nm with a microplate photometer (Multiskan EX, Thermo Scientific, Etten-Leur, The Netherlands)."}, "[2]": {"test_system": "engineered human heart tissue", "design": "method as in PMID 30853557", "conditions": "cited from earlier work"}, "[3]": {"test_system": "mouse myocardial infarction", "design": "method as in PMID 30853557", "conditions": "mice, even given an hour after reperfusion; cited from earlier work"}, "[4]": {"design": "method as in PMID 30853557", "conditions": "mice, twice daily oral dosing of DMX-5804; cited from earlier work"}, "aqueous solubility": {"experiment": "aqueous solubility", "format": "physicochemical", "description": "The chemical structures of DMX-5804 and DMX-10001 are compared in Fig. 1a, highlighting the phosphate moiety of the pro-drug. The aqueous solubility of DMX-10001 was > 400-fold greater than that of DMX-5804, allowing it to be infused i.v. without prohibitive fluid volumes. Cleavage to DMX-5804 was detectable in rats within 5 min and largely complete within 60 min (Fig. 1b). Data from i.v. infusion at a range of dose levels in the pig were simultaneously fit to a three-compartment pharmacokinetic model. Plasma protein binding in pig was used to determine free drug levels (not shown). Various dosing regimens were simulated to avoid an initial spike in DMX-5804 whilst rapidly achieving the efficacious drug levels seen in mice after oral gavage (Fig. 1c)."}, "humans": {"test_system": "humans", "conditions": "cited from earlier work; for cardioprotection in human trials: 16 (TRO40303), 5, 20 (cyclosporine), 21, 29 (cariporide)"}, "pigs": {"test_system": "pigs", "conditions": "cited from earlier work; for cardioprotection findings in pigs: 16 (TRO40303), 5, 20 (cyclosporine), 21, 29 (cariporide)"}, "[5]": {"conditions": "pigs, pro-drug DMX-10001 infusion (60 mg/kg/h 0.5 h + 17 mg/kg/h 23.5 h)"}},
  "note": "Where “and” joins values, the source holds several entries; their conditions need not be identical. Equal entries are not always repeated.",
  "data": [
    {"compound": "COCCOc1ccc(-c2cn(-c3ccccc3)c3nc[nH]c(=O)c23)cc1", "note": "[DMX-5804]", "values": [
      {"measurement": "IC50", "setting": "MAP4K4", "result": 0.003, "unit": "µM"},
      {"measurement": "death from oxidative stress in hPSC-CMs", "setting": "hPSC-CMs", "result": "suppressed death from oxidative stress"},
      {"measurement": "EC50", "setting": "hPSC-CMs; vCor.4U cells treated with 400 μM H2O2, read-out: EC50 for reducing cell death", "result": 0.5, "unit": "µM"},
      {"measurement": "selectivity among 376 kinases", "setting": "376 kinases", "result": "interfering potently just with MINK1/MAP4K6 and TNIK/MAP4K7"},
      {"measurement": "target level of DMX-5804, based on successful reduction of IS in mice", "setting": "[1]; after infusion with DMX-10001", "result": "achieved in all animals"},
      {"measurement": "levels of DMX-5804 generated in pigs relative to those in mice", "setting": "[1]; at the corresponding times after injury", "result": "at least tenfold"},
      {"measurement": "free AUC0-24 of DMX-5804", "setting": "[1]; [5]", "result": "27,900 h.nM"},
      {"measurement": "free Cav of DMX-5804", "setting": "[1]; [5]", "result": "1,160 nM"},
      {"measurement": "DMX-5804 concentrations relative to the levels that rescued hPSC-CMs and reduced IS in mice", "setting": "[1]; swine, all times tested beginning 30 min after the start of DMX-10001 infusion", "result": "> fivefold"},
      {"measurement": "cell death in engineered human heart tissue", "setting": "[2]", "result": "blocked cell death"},
      {"measurement": "reduction of infarct size (IS)", "setting": "[3]", "result": "50% and > 50%"},
      {"measurement": "free AUC0–22 of DMX-5804", "setting": "[4]", "result": "2,200 h.nM"},
      {"measurement": "aqueous solubility", "setting": "aqueous solubility", "result": "inadequate for i.v. delivery"}
    ]},
    {"compound": "CC(C)CCC[C@@H](C)[C@H]1CC[C@H]2[C@@H]3CC/C(=N\\O)[C@](C)(CCCO)[C@H]3CC[C@]12C", "note": "[TRO40303]", "values": [
      {"measurement": "cardioprotection in human trials", "setting": "humans", "result": "failures of cardioprotection"},
      {"measurement": "cardioprotection findings in pigs", "setting": "pigs", "result": "weak or negative findings"}
    ]},
    {"compound": "Nc1ncnc2c1ncn2[C@@H]1O[C@H](CO)[C@@H](O)[C@H]1O", "note": "[adenosine]", "values": [
      {"measurement": "protection in swine", "setting": "pigs; bolus", "result": "gave no protection"}
    ]},
    {"compound": "CC(C)c1ccc(C(=O)NC(=N)N)cc1S(C)(=O)=O", "note": "[cariporide]", "values": [
      {"measurement": "cardioprotection in human trials", "setting": "humans", "result": "failures of cardioprotection"},
      {"measurement": "cardioprotection findings in pigs", "setting": "pigs", "result": "weak or negative findings"}
    ]},
    {"compound": "liraglutide", "values": [
      {"measurement": "myocardial salvage in humans", "setting": "humans", "result": "improved myocardial salvage"},
      {"measurement": "results in pigs", "setting": "pigs", "result": "negative results"}
    ]}
  ]
}
